Assay results from patent US9440988B2, “Regulators of the hedgehog pathway, compositions and uses related thereto” (John Hopkins University School of Medicine, priority 1008, dated 2016).

Assays:
p2PTC−/− cells = conditions: even at the highest doses used, 2 d
Description: (§1) Relative reporter activity is normalized to maximum. […] Error bars in A and B indicate one standard deviation.

activated Smo (SmoA1) = test: Gli-luciferase reporter activity in cells expressing activated Smo (SmoA1-LIGHT); assay type: cell-based, mouse
Description: FIG. 2 relates to a sensitive assay for Shh signaling in NIH-3T3 cells. (A) Purification of cholesterol- and palmitate-modified mouse Sonic hedgehog signaling domain ShhNp. Detergent-insoluble proteolipid complexes were isolated from 293 cells expressing full-length Shh (M. K. Cooper, J. A. Porter, K. E. Young, P. A. Beachy, Science 280, 1603 (1998)), and ShhNp was purified to apparent homogeneity by immunoaffinity chromatography. […] We therefore used the detergent insolubility of cholesterol-modified ShhN and affinity chromatography to purify the processed ShhN protein (ShhNp) from a human 293 cell line engineered to express the full length mouse Shh construct. Detergent-insoluble complexes (DIGs) were isolated as described by Brown and Rose (1992), with the following modifications. Cells from a 150 mm dish were lysed and collected in 2 mL of lysis solution (10 mM NaHPO4, pH 6.5, 150 mM NaCl, 0.5 mM PMSF, 1% Triton X-100, 2 μg/ml Pepstatin A, 10 μg/ml leupeptin, 5 μg/ml aprotinin, 2 μg/ml E64) at 4° C. […] Fold induction of the reporter (% of maximum is relative to equally dense Shh-LIGHT control culture) and cell densities (% of maximum Renilla luciferase activity) were measured at the end of the experiment. […]

[1] = test system: P2A6 fibrosarcoma cells derived from Ptc−/− embryonic fibroblasts; test: Subcutaneous P2A6 fibrosarcoma tumors in female nude mice; assay type: in vivo, mouse; conditions: for differentiation status of tumors: compared with the tomatidine-treated control, FIG. 7; for Ki-67 proliferation rate: tumors after four days of treatment, blinded pathologist
Experimental: Female nude mice were injected subcutaneously with 5 million P2A6 fibrosarcoma cells derived from Ptc−/− embryonic fibroblasts. Three weeks after injection, each mouse had developed a discrete subcutaneous tumor. Each tumor was measured and treatments were initiated on the same day. […] The mice were killed, and tumors were measured and dissected out for histopathologic analysis. Tumor volumes were calculated as the product of length x width. The samples were paraformaldehyde-fixed and paraffin-embedded, and slides were cut for hematoxylin and eosin staining and for immunohistochemistry with polyclonal antibodies against the proliferation marker Ki-67 (Novacastra NCL-Ki67p; assay performed according to manufacturer's directions).

[2] = test system: Shh pathway activity in Ptc1−/− cells
Description: Since β-galactosidase is expressed from the Ptc1 locus, its expression reflects the activity of the Shh pathway. A representative experiment is shown. […] Cultures of NIH-3T3 cells were transfected (in triplicate) with Gli-luciferase reporter, TK-Renilla luciferase control vector and Smo or SmoA1 expression vectors. Smo DNA was used at 50% w/w, and SmoA1 at 50%, 5%, and 0.5% w/w. […] Error bars indicate one standard deviation. The leftmost four bars, shown for comparison, are as in FIG. 2C. […] NIH-3T3 cells were transfected with Gli-luc reporter, TK-Renilla, Ptc1CTD and SmoA1 expression vectors (Ptc to Smo DNA ratio=9). […] A representative experiment is shown. […] NIH-3T3 cells were cotransfected with Gli-luc reporter, β-galactosidase transfection control, and a control vector or an expression vector encoding the indicated Smo-Renilla luciferase fusion protein. In the representative experiment shown, Shh pathway activity and Smo protein levels were measured as firefly and Renilla luciferase activities relative to β-galactosidase, respectively.
as §1
Mice lacking function of Ptc1 display widespread activation of targets of Shh signaling, including of the Ptc1 gene itself (L. V. Goodrich, L. Milenkovic, K. M. Higgins, M. P. Scott, Science 277, 1109 (1997)). As β-galactosidase is expressed under the control of the Ptc1 promoter in these cells, β-galactosidase expression can be used to assay the state of Shh pathway activity (FIG. 3A).

Sonic hedgehog signaling = test: Clonal NIH-3T3 line with stably integrated Shh-responsive luciferase reporter (Shh-LIGHT/Shh-LIGHT2), inhibition of Sonic hedgehog induction; assay type: cell-based, mouse
Description: FIG. 2 relates to a sensitive assay for Shh signaling in NIH-3T3 cells. (A) Purification of cholesterol- and palmitate-modified mouse Sonic hedgehog signaling domain ShhNp. Detergent-insoluble proteolipid complexes were isolated from 293 cells expressing full-length Shh (M. K. Cooper, J. A. Porter, K. E. Young, P. A. Beachy, Science 280, 1603 (1998)), and ShhNp was purified to apparent homogeneity by immunoaffinity chromatography. […] We therefore used the detergent insolubility of cholesterol-modified ShhN and affinity chromatography to purify the processed ShhN protein (ShhNp) from a human 293 cell line engineered to express the full length mouse Shh construct. Detergent-insoluble complexes (DIGs) were isolated as described by Brown and Rose (1992), with the following modifications. Cells from a 150 mm dish were lysed and collected in 2 mL of lysis solution (10 mM NaHPO4, pH 6.5, 150 mM NaCl, 0.5 mM PMSF, 1% Triton X-100, 2 μg/ml Pepstatin A, 10 μg/ml leupeptin, 5 μg/ml aprotinin, 2 μg/ml E64) at 4° C. […] Low-density, flocculent material was collected (from original position of 18.125% step), diluted 5-fold in 10 mM NaHPO4, pH 6.5, 150 mM NaCl and harvested by centrifugation at 20,000×g for 15 min (all at 4° C.). […] Mass standards migrated as indicated. […] NIH-3T3 cells cotransfected with Gli-luc reporter and TK promoter-driven Renilla luciferase control were treated with the indicated concentrations of ShhNp for 2 days. Confluent cultures of NIH-3T3 cells were plated at 1:6 dilution to 24 or 96-well plates. On the following day, the cells were transfected with renilla luciferase (pRL-TK or pRL-SV40; Clontech) or β-galactosidase transfection control (10% w/w DNA), Gli-Luc reporter (40%) and the constructs indicated (50%) using Fugene 6 (Roche) transfection reagent (250 ng (24 well plate) or 100 ng (96 well plate) DNA/well, 3:1 ratio (v/w) of reagent to DNA). […] Firefly and Renilla luciferase and β-galactosidase activities were assayed from the cell lysates by luminometry using dual luciferase (Promega) and Galacto-Light (Tropix) kits, respectively. Luciferase activities are normalized relative to control; a representative experiment is shown. […] Error bars indicate one standard deviation. […] Cultures of Shh-LIGHT (open boxes) or SmoA1-LIGHT (filled diamonds) cells were plated to 96-well plates in a series of twofold dilutions. The NIH-3T3 cell clone Shh-LIGHT and Shh-LIGHT2 stably incorporating the Gli-luc reporter and TK-renilla vectors were established by cotransfection with a vector encoding G418 resistance (pSV-Neo), followed by selection with G418 and cell cloning. Subsequently, a clonal subline of Shh-LIGHT expressing activated Smo (SmoA1-LIGHT) was established using an expression vector that allows hygromycin selection (pcDNA3.1+ hygro; Invitrogen). […] The Shh-LIGHT cells were treated with 4 nM ShhNp, and Gli-luciferase reporter activity was assayed after 24 h. Fold induction of the reporter (% of maximum is relative to equally dense Shh-LIGHT control culture) and cell densities (% of maximum Renilla luciferase activity) were measured at the end of the experiment. Error bars indicate one standard deviation (quadruplicate wells).
as §1

NIH-3T3 cells = conditions: data not shown
Hedgehog signaling = Hedgehog signaling assay in Drosophila c1-8 cells; assay type: cell-based; conditions: not shown
Description: Cellular responses to the Hh signal are controlled by two multi-pass transmembrane proteins, Smo and Ptc1, predicted to have seven and twelve transmembrane spans, respectively. Smo is related to the Frizzled family of Wnt receptors and more distantly to the secretin family of G protein-coupled receptors (M. R. Barnes, D. M. Duckworth, L. J. Beeley, Trends Pharmacol Sci 19, 399 (1998)).

Shh pathway = test: Gli-luciferase reporter assay for Shh signaling in transiently transfected NIH-3T3 cells; assay type: cell-based, mouse; conditions: ShhNp-treated NIH-3T3 cells (FIG. 2C: ShhNp 4 nM, cyclopamine 5 μM, 2 d)
[3] = nude mice, once daily intraperitoneal, four days, one mouse per treatment

3-keto, N-aminoethyl aminocaproyl dihydrocinnamoyl cyclopamine [KAAD cyclopamine]
Significant toxicity (microscopically visible cell death, or decrease in Cell Titer reading) (p2PTC−/− cells): not observed | blocking of pathway activation by tumor-derived / constitutively activated Smo (activated Smo (SmoA1)): can block | concentration suppressing SmoA1-induced reporter activity relative to that required for suppression of ShhNp signaling (activated Smo (SmoA1); higher, FIG. 4A): approximately 10 fold | differentiation status of tumors [1]: greater degree of differentiation | decrease of tumor size [1, 3]: 19% | Ki-67 proliferation rate [1]: 12% | blocking/suppression of pathway activity in cells lacking Ptc1 function [2]: can block | potency relative to cyclopamine in p2PTC−/− cells ([2]; FIG. 4B, 2 d): higher potency | minimum normalized β-galactosidase activity ([2]; p2PTC−/− cells, 2 d, normalized to cell mass, set to 0): 191 | Maximum normalized β-galactosidase activity ([2]; p2PTC−/− cells, 2 d, normalized to cell mass, set to 1): 1103 | potency in suppression of ShhNp-induced pathway activity relative to cyclopamine (Sonic hedgehog signaling): 10-20 fold

CC1=C2C[C@H]3[C@@H](CC=C4C[C@@H](O)CC[C@@]43C)[C@@H]2CC[C@]12O[C@@H]1C[C@H](C)CN[C@H]1[C@H]2C [Compound 1, cyclopamine]
Significant toxicity (microscopically visible cell death, or decrease in Cell Titer reading) (p2PTC−/− cells): not observed | concentration range in which toxic effects emerge (NIH-3T3 cells): 10 to 40 µM | sensitivity of Hedgehog signaling assay to the substance (Hedgehog signaling): resistant | differentiation status of tumors [1]: greater degree of differentiation | decrease of tumor size [1, 3]: 0.14% | Ki-67 proliferation rate [1]: 16% | β-galactosidase expression [2]: significantly suppressed

C[C@H]1CC[C@]2(NC1)O[C@H]1C[C@H]3[C@@H]4CC[C@H]5C[C@@H](O)CC[C@]5(C)[C@H]4CC[C@]3(C)[C@H]1[C@@H]2C [tomatidine]
tumor growth over the treatment period [1, 3]: 17% | Ki-67 proliferation rate [1]: 30%

forskolin
induction of reporter by ShhNp (Shh pathway): prevented induction
